Results on 48 compounds are retold here after patent publication US11673898B2, “Substituted inhibitors of menin-MLL and methods of use” (Kura Oncology, Inc., priority 2016, dated 2023).

The test has as its target T1, Menin MLL 4-43 (Homo sapiens, UniProt O00255).
T1 sequence (O00255 1-610): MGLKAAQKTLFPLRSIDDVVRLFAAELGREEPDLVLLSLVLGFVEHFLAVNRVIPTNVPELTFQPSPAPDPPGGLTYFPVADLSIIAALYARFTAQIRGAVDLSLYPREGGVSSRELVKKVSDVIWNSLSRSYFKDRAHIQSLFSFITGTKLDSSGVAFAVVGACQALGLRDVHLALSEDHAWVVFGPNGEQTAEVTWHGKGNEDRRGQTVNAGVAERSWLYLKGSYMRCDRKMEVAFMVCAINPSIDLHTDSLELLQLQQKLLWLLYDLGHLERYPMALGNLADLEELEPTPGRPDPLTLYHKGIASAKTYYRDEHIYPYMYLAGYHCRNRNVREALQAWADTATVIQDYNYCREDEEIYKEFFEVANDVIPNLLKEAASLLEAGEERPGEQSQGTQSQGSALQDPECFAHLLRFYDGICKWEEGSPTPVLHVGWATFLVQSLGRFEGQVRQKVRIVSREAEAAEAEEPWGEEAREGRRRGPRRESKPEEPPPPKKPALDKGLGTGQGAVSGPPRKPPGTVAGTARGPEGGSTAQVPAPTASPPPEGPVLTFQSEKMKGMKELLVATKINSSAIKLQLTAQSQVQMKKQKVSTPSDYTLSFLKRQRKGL
The test is described as follows: Fluorescence polarization (FP) competition assay of the menin-MLL interaction. As to conditions: fluorescence polarization assay; read-out: Menin MLL 4-43 IC50. Format: binding. A general note: Polarisation of emitted light reports the rotation of a fluorescent probe.

Where only a bound is given, the exact number is not on record here.

One may read the IC50 as the midpoint of a concentration-inhibition curve. `C=CC(=O)Nc1ccc(C(Cn2c(C#N)cc3c(C)c(CN4CCC(Nc5ncnc6sc(CC(F)(F)F)cc56)CC4)ccc32)OC)cc1` (stereo not drawn) [Compound 1]: the IC50 was 0.02 to 1 µM.
As to `Cc1c(CN2CCC(Nc3ncnc4sc(CC(F)(F)F)cc34)CC2)ccc2c1cc(C#N)n2CC(C)N1CCN(S(C)(=O)=O)CC1` (stereo not drawn) [Compound 2], the IC50 was 0.05 to 0.25 µM.
Regarding `Cc1c(CN2CCC(Nc3ncnc4sc(CC(F)(F)F)cc34)CC2)ccc2c1cc(C#N)n2CC(C)N1CCN(S(C)(=O)=O)CC1` (stereo not drawn) [Compound 3], the IC50 was 0.02 to 1 µM.
`CCS(=O)(=O)N1CCN(C(C)Cn2c(C#N)cc3c(C)c(CN4CCC(Nc5ncnc6sc(CC(F)(F)F)cc56)CC4)ccc32)CC1` (stereo not drawn) [Compound 4]: the IC50 was 0.05 to 0.25 µM.
As to `CC(=O)N1CCN(C(C)Cn2c(C#N)cc3c(C)c(CN4CCC(Nc5ncnc6sc(CC(F)(F)F)cc56)CC4)ccc32)CC1` (stereo not drawn) [Compound 5], the IC50 lay within 0.05 to 0.25 µM.
For the compound `Cc1c(CN2CCC(Nc3ncnc4sc(CC(F)(F)F)cc34)CC2)ccc2c1cc(C#N)n2CC(C)N1CCN(C=O)CC1` (stereo not drawn) [Compound 6], the IC50 was less than 0.05 µM.
For the compound `Cc1c(CN2CCC(Nc3ncnc4sc(CC(F)(F)F)cc34)CC2)ccc2c1cc(C#N)n2CC(C)N1CCN(S(N)(=O)=O)CC1` (stereo not drawn) [Compound 7], the IC50 lay in the range of 0.05 to 0.25 µM.
For `CNS(=O)(=O)N1CCN(C(C)Cn2c(C#N)cc3c(C)c(CN4CCC(Nc5ncnc6sc(CC(F)(F)F)cc56)CC4)ccc32)CC1` (stereo not drawn) [Compound 8], the IC50 was less than 0.05 µM.
In the case of `Cc1c(CN2CCC(Nc3ncnc4sc(CC(F)(F)F)cc34)CC2)ccc2c1cc(C#N)n2CC(C)N1CCN(S(C)(=O)=O)C(C)C1` (stereo not drawn) [Compound 11], the IC50 lay in the range of 0.05 to 0.25 µM.
The result for `Cc1c(CN2CCC(Nc3ncnc4sc(CC(F)(F)F)cc34)CC2)ccc2c1cc(C#N)n2CC(C)N1C[C@@H](C)N(S(C)(=O)=O)[C@@H](C)C1` (stereo partly drawn) [Compound 12] reads less than 0.05 µM; that for `Cc1c(CN2CCC(Nc3ncnc4sc(CC(F)(F)F)cc34)CC2)ccc2c1cc(C#N)n2CC(C)N1CCN(S(C)(=O)=O)[C@@H](C)C1` (stereo partly drawn) [Compound 13], less than 0.05 µM.
As for `Cc1c(CN2CCC(Nc3ncnc4sc(CC(F)(F)F)cc34)CC2)ccc2c1cc(C#N)n2CC(C)N1CCN(S(C)(=O)=O)[C@H](C)C1` (stereo partly drawn) [Compound 14], the IC50 was less than 0.05 µM.
With `CCC(Cn1c(C#N)cc2c(C)c(CN3CCC(Nc4ncnc5sc(CC(F)(F)F)cc45)CC3)ccc21)N1CCN(S(C)(=O)=O)CC1` (stereo not drawn) [Compound 15], the half-maximal inhibitory concentration (IC50) was more than 1 µM.
As for `Cc1c(CN2CCC(Nc3ncnc4sc(CC(F)(F)F)cc34)CC2)ccc2c1cc(C#N)n2CC(C)(C)N1CCN(S(C)(=O)=O)CC1` [Compound 16], the IC50 was more than 1 µM.
With `Cc1c(CN2CCC(Nc3ncnc4sc(CC(F)(F)F)cc34)CC2)ccc2c1cc(C#N)n2C[C@@H](C)N1CCN(S(C)(=O)=O)[C@@H](C)C1` [Compound 17], the IC50 was 0.05 to 0.25 µM.
For the compound `Cc1c(CN2CCC(Nc3ncnc4sc(CC(F)(F)F)cc34)CC2)ccc2c1cc(C#N)n2C[C@H](C)N1CCN(S(C)(=O)=O)[C@@H](C)C1` [Compound 18], the IC50 was less than 0.05 µM.
Consider `Cc1c(CN2CCC(Nc3ncnc4sc(CC(F)(F)F)cc34)CC2)ccc2c1cc(C#N)n2C[C@H](C)N1CCN(S(C)(=O)=O)[C@H](C)C1` [Compound 19], for which the IC50 is 0.05 to 0.25 µM.
Consider `Cc1c(CN2CCC(Nc3ncnc4sc(CC(F)(F)F)cc34)CC2)ccc2c1cc(C#N)n2C[C@@H](C)N1CCN(S(C)(=O)=O)[C@H](C)C1` [Compound 20], for which the half-inhibitory concentration (IC50) is less than 0.05 µM.
Regarding `Cc1c(CN2CCC(Nc3ncnc4sc(CC(F)(F)F)cc34)CC2)ccc2c1cc(C#N)n2CC(C)N1C[C@H](C)N(S(C)(=O)=O)[C@@H](C)C1` (stereo partly drawn) [Compound 21], the IC50 was in the range of 0.05 to 0.25 µM.
On to `Cc1c(CN2CCC(Nc3ncnc4sc(CC(F)(F)F)cc34)CC2)ccc2c1cc(C#N)n2CC(C)N1C[C@@H](C)N(S(C)(=O)=O)[C@H](C)C1` (stereo partly drawn) [Compound 22], for which the IC50 is less than 0.05 µM.
To `Cc1c(CN2CCC(Nc3ncnc4sc(CC(F)(F)F)cc34)CC2)ccc2c1cc(C#N)n2CC(C1CC1)N1CCN(S(C)(=O)=O)CC1` (stereo not drawn) [Compound 23] belongs more than 1 µM.
As to `Cc1c(CN2CCC(Nc3ncnc4sc(CC(F)(F)F)cc34)CC2)ccc2c1cc(C#N)n2CC(C(C)C)N1CCN(S(C)(=O)=O)CC1` (stereo not drawn) [Compound 24], the IC50 was in the range of 0.02 to 1 µM.
With `Cc1c(CN2CCC(Nc3ncnc4sc(CC(F)(F)F)cc34)CC2)ccc2c1cc(C#N)n2CC(C)N1CCN(S(C)(=O)=O)C(C)(C)C1` (stereo not drawn) [Compound 25], the half-inhibitory concentration (IC50) lay in the range of 0.05 to 0.25 µM.
`CC[C@H]1CN(C(C)Cn2c(C#N)cc3c(C)c(CN4CCC(Nc5ncnc6sc(CC(F)(F)F)cc56)CC4)ccc32)CCN1S(C)(=O)=O` (stereo partly drawn) [Compound 26]: the IC50 lay in the range of 0.02 to 1 µM.
With `Cc1c(CN2CCC(Nc3ncnc4sc(CC(F)(F)F)cc34)CC2)ccc2c1cc(C#N)n2C(C)CN1CCN(S(C)(=O)=O)CC1` (stereo not drawn) [Compound 27], the IC50 was less than 0.05 µM.
As for `Cc1c(CN2CCC(Nc3ncnc4sc(CC(F)(F)F)cc34)CC2)ccc2c1cc(C#N)n2CC(C)N1CC2CCC(C1)N2S(C)(=O)=O` (stereo not drawn) [Compound 28], the IC50 is less than 0.05 µM.
Regarding `CC[C@@H]1CN(C(C)Cn2c(C#N)cc3c(C)c(CN4CCC(Nc5ncnc6sc(CC(F)(F)F)cc56)CC4)ccc32)CCN1S(C)(=O)=O` (stereo partly drawn) [Compound 29], the 50% inhibitory concentration (IC50) was in the range of 0.05 to 0.25 µM.
For the compound `Cc1c(CN2CCC(Nc3ncnc4sc(CC(F)(F)F)cc34)CC2)ccc2c1cc(C#N)n2CC(C)N1CC2CC(C1)N2S(C)(=O)=O` (stereo not drawn) [Compound 30], the IC50 was 0.05 to 0.25 µM.
The result for `Cc1c(CN2CCC(Nc3ncnc4sc(CC(F)(F)F)cc34)CC2)ccc2c1cc(C#N)n2CC(=O)N1CCN(S(C)(=O)=O)CC1` [Compound 35, 4-methyl-1-(2-(4-(methylsulfonyl)piperazin-1-yl)-2-oxoethyl)-5-((4-((6-(2,2,2-trifluoroethyl)thieno[2,3-d]pyrimidin-4-yl)amino)piperidin-1-yl)methyl)-1H-indole-2-carbonitrile] reads more than 1 µM; that for `Cc1c(CN2CCC(Nc3ncnc4sc(CC(F)(F)F)cc34)CC2)ccc2c1cc(C#N)n2CCN1CCN(S(C)(=O)=O)C(C)C1` (stereo not drawn) [Compound 43], 0.05 to 0.25 µM.
`Cc1c(CN2CCC(Nc3ncnc4sc(CC(F)(F)F)cc34)CC2)ccc2c1cc(C#N)n2CCN1CC(C)N(S(C)(=O)=O)CC1C` (stereo not drawn) [Compound 44]: the IC50 lay in the range of 0.02 to 1 µM.
Consider `Cc1c(CN2CCC(Nc3ncnc4sc(CC(F)(F)F)cc34)CC2)ccc2c1cc(C#N)n2CCN1CCN(S(C)(=O)=O)CC1C` (stereo not drawn) [Compound 45], for which the IC50 was in the range of 0.02 to 1 µM.
On to `Cc1c(CN2CCC(Nc3ncnc4sc(CC(F)(F)F)cc34)CC2)ccc2c1cc(C#N)n2CCN1C[C@@H](C)N(S(C)(=O)=O)[C@@H](C)C1` [Compound 46], for which the IC50 lay in the range of 0.05 to 0.25 µM.
Turning to `Cc1c(CN2CCC(Nc3ncnc4sc(CC(F)(F)F)cc34)CC2)ccc2c1cc(C#N)n2CCN1C(C)CN(S(C)(=O)=O)CC1C` (stereo not drawn) [Compound 47], the concentration for half-maximal inhibition (IC50) is more than 1 µM.
In the case of `Cc1c(CN2CCC(Nc3ncnc4sc(CC(F)(F)F)cc34)CC2)ccc2c1cc(C#N)n2CCN1C[C@@H](C)N(S(C)(=O)=O)[C@H](C)C1` [Compound 48], the IC50 lay in the range of 0.05 to 0.25 µM.
On to `Cc1c(CN2CCC(Nc3ncnc4sc(CC(F)(F)F)cc34)CC2)ccc2c1cc(C#N)n2CCN1C[C@H](C)N(S(C)(=O)=O)[C@@H](C)C1` [Compound 49], for which the IC50 lay in the range of 0.05 to 0.25 µM.
In the case of `Cc1c(CN2CCC(Nc3ncnc4sc(CC(F)(F)F)cc34)CC2)ccc2c1cc(C#N)n2CCN1CCC2(CC1)CCN(S(C)(=O)=O)C2` [Compound 52], the IC50 fell in the range of 0.02 to 1 µM.
Consider `Cc1c(CN2CCC(Nc3ncnc4sc(CC(F)(F)F)cc34)CC2)ccc2c1cc(C#N)n2CCN1CCC2(CCN(S(C)(=O)=O)C2)C1` (stereo not drawn) [Compound 53], for which the IC50 lay within 0.02 to 1 µM.
On to `Cc1c(CN2CCC(Nc3ncnc4sc(CC(F)(F)F)cc34)CC2)ccc2c1cc(C#N)n2CCN1CCC2(CC1)CN(S(C)(=O)=O)C2` [Compound 54], for which the half-inhibitory concentration (IC50) lay in the range of 0.05 to 0.25 µM.
Turning to `Cc1c(CN2CCC(Nc3ncnc4sc(CC(F)(F)F)cc34)CC2)ccc2c1cc(C#N)n2CCN1CC2CN(S(C)(=O)=O)CC2C1` (stereo not drawn) [Compound 55], the IC50 lay within 0.02 to 1 µM.
With `Cc1c(CN2CCC(Nc3ncnc4sc(CC(F)(F)F)cc34)CC2)ccc2c1cc(C#N)n2CCN1CC2(CCN(S(C)(=O)=O)CC2)C1` [Compound 56], the IC50 was 0.02 to 1 µM.
Take `Cc1c(CN2CCC(Nc3ncnc4sc(CC(F)(F)F)cc34)CC2)ccc2c1cc(C#N)n2CCN1CC2(C1)CN(S(C)(=O)=O)C2` [Compound 57]: the IC50 was in the range of 0.02 to 1 µM.
The result for `Cc1c(CN2CCC(Nc3ncnc4sc(CC(F)(F)F)cc34)CC2)ccc2c1cc(C#N)n2CCN1CC2(CCN(S(C)(=O)=O)C2)C1` [Compound 58] reads 0.02 to 1 µM.
Regarding `Cc1c(CN2CCC(Nc3ncnc4sc(CC(F)(F)F)cc34)CC2)ccc2c1cc(C#N)n2CCC1CCN(S(C)(=O)=O)C(C)C1` (stereo not drawn) [Compound 59], the IC50 is 0.02 to 1 µM.
As to `Cc1c(CN2CCC(Nc3ncnc4sc(CC(F)(F)F)cc34)CC2)ccc2c1cc(C#N)n2CCC1(C)CCN(S(C)(=O)=O)CC1` [Compound 60], the half-inhibitory concentration (IC50) was more than 1 µM.
In the case of `Cc1c(CN2CCC(Nc3ncnc4sc(CC(F)(F)F)cc34)CC2)ccc2c1cc(C#N)n2CC1(N2CCN(S(C)(=O)=O)CC2)CC1` [Compound 61], the IC50 is 0.05 to 0.25 µM.
For the compound `Cc1c(CN2CCC(Nc3ncnc4sc(CC(F)(F)F)cc34)CC2)ccc2c1cc(C#N)n2CC(CO)N1CCN(S(C)(=O)=O)CC1` (stereo not drawn) [Compound 62], the IC50 was more than 1 µM.
For the compound `CNS(=O)(=O)N1CCN([C@@H](C)Cn2c(C#N)cc3c(C)c(CN4CCC(Nc5ncnc6sc(CC(F)(F)F)cc56)CC4)ccc32)CC1` [Compound 64], the IC50 was less than 0.05 µM.
